ChEMBL document CHEMBL1201862, “PubChem BioAssay data set” (2004)
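Cultured in 96-well plates, cells were exposed to test compound for 48 hours across five concentrations. At the GI50, growth is halved.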 Calls of active or inactive are those of the source. Cut-off read from the data, not from the text of the source: active = GI50 up to about 1.1 µM and inactive = higher.

How the values were obtained:
Test in all cases: NCI anticancer screen, dose series, 48 h
[1] = system: EKVX
[2] = system: U-251
[3] = system: SNB-75
[4] = system: OVCAR-4
[5] = system: 786-0
[6] = system: SK-MEL-5
[7] = system: SF-268
[8] = system: A549
[9] = system: HCT-15
[10] = system: NCI/ADR-RES
[11] = system: SF-295
[12] = system: SF-539
[13] = system: UO-31
[14] = system: M14
[15] = system: HOP-92
[16] = system: SR
[17] = system: Malme-3M
[18] = system: Hs-578T
[19] = system: HL-60
[20] = system: A498

SMILES | GI50 [1] | GI50 [2] | GI50 [3] | GI50 [4] | GI50 [5] | GI50 [6] | GI50 [7] | GI50 [8] | GI50 [9] | GI50 [10] | GI50 [11] | GI50 [12] | GI50 [13] | GI50 [14] | GI50 [15] | GI50 [16] | GI50 [17] | GI50 [18] | GI50 [19] | GI50 [20]
CCOC(=O)N/N=C(/N)Cc1ccc(Cl)cc1 | > 100 µM (inactive) | > 100 µM (inactive) | > 100 µM (inactive) | > 100 µM (inactive) | > 100 µM (inactive) | > 100 µM (inactive) | > 100 µM (inactive) | > 100 µM (inactive) | > 100 µM | > 100 µM (inactive) | > 100 µM (inactive) | > 100 µM (inactive) | > 100 µM (inactive) | > 100 µM (inactive) | > 100 µM (inactive) | – | – | – | – | –
O=C(N/N=C(\c1ccccc1)c1ccccn1)NC1CCCCC1 | 41.8 µM (inactive) | 51.1 µM (inactive) | > 100 µM (inactive) | 22.7 µM (inactive) | 63.5 µM (inactive) | 40.1 µM (inactive) | 37.2 µM (inactive) | 46.8 µM (inactive) | 22.9 µM | – | 26.6 µM (inactive) | – | 43.5 µM (inactive) | 30 µM (inactive) | 61.8 µM (inactive) | 72.6 µM (inactive) | 38.6 µM (inactive) | > 100 µM (inactive) | – | –
COC(=O)C1=C(C(=O)OC)C23CC4CCC2(C(=O)C1O3)C4(C)C (centres undefined) | – | > 100 µM (inactive) | 53.8 µM (inactive) | > 100 µM (inactive) | > 100 µM (inactive) | > 100 µM (inactive) | 94.4 µM (inactive) | > 100 µM (inactive) | > 100 µM | – | 95.1 µM (inactive) | > 100 µM (inactive) | > 100 µM (inactive) | > 100 µM (inactive) | 48.5 µM (inactive) | 26.7 µM (inactive) | > 100 µM (inactive) | – | 21.2 µM (inactive) | > 100 µM (inactive)
O=c1cc2n(c(=O)[nH]1)C1OC(C(O)C1O)[C@@H]2CCO (some centres undefined) | > 100 µM (inactive) | > 100 µM (inactive) | – | > 100 µM (inactive) | > 100 µM (inactive) | > 100 µM (inactive) | > 100 µM (inactive) | > 100 µM (inactive) | – | – | > 100 µM (inactive) | > 100 µM (inactive) | > 100 µM (inactive) | > 100 µM (inactive) | > 100 µM (inactive) | > 100 µM (inactive) | > 100 µM (inactive) | – | > 100 µM (inactive) | > 100 µM (inactive)
CCSC1=C(C)N(/C=N/C(C)(C)C)CC1 | > 100 µM (inactive) | > 100 µM (inactive) | > 100 µM (inactive) | > 100 µM (inactive) | > 100 µM (inactive) | > 100 µM (inactive) | > 100 µM (inactive) | > 100 µM (inactive) | > 100 µM | – | > 100 µM (inactive) | > 100 µM (inactive) | > 100 µM (inactive) | > 100 µM (inactive) | > 100 µM (inactive) | > 100 µM (inactive) | > 100 µM (inactive) | – | > 100 µM (inactive) | > 100 µM (inactive)
COC1=C(OC)C(=O)c2cc(SC)c(=O)c(SC)cc2C1=O | 21.2 µM (inactive) | 17.9 µM (inactive) | 13.6 µM (inactive) | 12.2 µM (inactive) | 17.3 µM (inactive) | 12.4 µM (inactive) | 12.8 µM (inactive) | 22.6 µM (inactive) | 25.1 µM | – | 15.7 µM (inactive) | 12.1 µM (inactive) | 19.8 µM (inactive) | 17.2 µM (inactive) | 17.7 µM (inactive) | 4.33 µM (inactive) | – | – | 1.68 µM (inactive) | 24.5 µM (inactive)
O=C(COC(=O)c1cccc2c(=O)c3ccccc3[nH]c12)Nc1ccc(C(=O)O)cc1 | > 100 µM (inactive) | > 100 µM (inactive) | 42.5 µM (inactive) | > 100 µM (inactive) | > 100 µM (inactive) | > 100 µM (inactive) | > 100 µM (inactive) | > 100 µM (inactive) | – | – | > 100 µM (inactive) | > 100 µM (inactive) | 71.3 µM (inactive) | > 100 µM (inactive) | > 100 µM (inactive) | 30.8 µM (inactive) | > 100 µM (inactive) | – | 94 µM (inactive) | > 100 µM (inactive)
O=C1C2=C(C(c3ccccc3)=C1c1ccccc1)c1ccccc1C1(c3ccccc3)C2=C(O)C(c2ccccc2)=C1c1ccccc1 (centres undefined) | > 100 µM (inactive) | > 100 µM (inactive) | > 100 µM (inactive) | > 100 µM (inactive) | > 100 µM (inactive) | > 100 µM (inactive) | > 100 µM (inactive) | > 100 µM (inactive) | > 100 µM | – | > 100 µM (inactive) | > 100 µM (inactive) | > 100 µM (inactive) | > 100 µM (inactive) | > 100 µM (inactive) | > 100 µM (inactive) | > 100 µM (inactive) | – | > 100 µM (inactive) | > 100 µM (inactive)
O=C(/C=C/c1ccccc1)NC1C=Nc2ccc(Cl)cc2NC1=O (centres undefined) | 31.3 µM (inactive) | 18.6 µM (inactive) | 15.6 µM (inactive) | 20.5 µM (inactive) | 23.2 µM (inactive) | 16.5 µM (inactive) | 36.2 µM (inactive) | 28.2 µM (inactive) | 22.1 µM | – | 29 µM (inactive) | 27.2 µM (inactive) | 11.8 µM (inactive) | 21.9 µM (inactive) | 32.2 µM (inactive) | 7.01 µM (inactive) | 26.9 µM (inactive) | – | 5.3 µM (inactive) | 21.7 µM (inactive)
CCCc1c(C(=O)OCC)[nH]c(-c2ccc(-c3[nH]c(C(=O)OCC)c(CCC)c3C(=O)OCC)s2)c1C(=O)OCC | 62.4 µM (inactive) | 36.1 µM (inactive) | 11.8 µM (inactive) | 18.4 µM (inactive) | 21.8 µM (inactive) | 35.2 µM (inactive) | 26.9 µM (inactive) | 52.4 µM (inactive) | 92.5 µM | – | 27.9 µM (inactive) | 41 µM (inactive) | 8.97 µM (inactive) | 49.8 µM (inactive) | 25.2 µM (inactive) | 7.26 µM (inactive) | 39.5 µM (inactive) | – | 46 µM (inactive) | 43.9 µM (inactive)
O=C1Oc2cc3c(c4cccc1c24)OCN(c1ccc(Cl)cc1)C3 | > 58.2 µM (inactive) | 41.9 µM (inactive) | > 63.7 µM (inactive) | 28.1 µM (inactive) | 14.3 µM (inactive) | 1.37 µM (inactive) | 23.9 µM (inactive) | 10.2 µM (inactive) | 2.97 µM | – | 48 µM (inactive) | 4.46 µM (inactive) | 3.03 µM (inactive) | 6.97 µM (inactive) | 20.5 µM (inactive) | 8.79 µM (inactive) | 26.4 µM (inactive) | – | 4.82 µM (inactive) | > 100 µM (inactive)
O=C(Nc1ccccc1)N1C(c2ccccc2)=N[C@@H](c2ccccc2)[C@@H]1c1ccccc1 | 43.7 µM (inactive) | – | 22.1 µM (inactive) | 17.6 µM (inactive) | 17.6 µM (inactive) | 13.6 µM (inactive) | 22.3 µM (inactive) | 21.2 µM (inactive) | 23.8 µM | – | 21.9 µM (inactive) | 18.6 µM (inactive) | 16.1 µM (inactive) | 14.6 µM (inactive) | 18.3 µM (inactive) | 14.8 µM (inactive) | 17.5 µM (inactive) | – | 19 µM (inactive) | 18.3 µM (inactive)
NC1c2ccccc2Nc2ccccc21 | 5.71 µM (inactive) | – | 11.8 µM (inactive) | – | 3.84 µM (inactive) | 5.28 µM (inactive) | 3.08 µM (inactive) | 4.26 µM (inactive) | 3.31 µM | – | 4.49 µM (inactive) | – | 3.27 µM (inactive) | 3.92 µM (inactive) | 3.27 µM (inactive) | 2.64 µM (inactive) | 4.97 µM (inactive) | – | 4.3 µM (inactive) | 8.34 µM (inactive)
O=S1(=O)c2ccccc2Oc2ccc(C(/C=N/O)=N/O)cc21 | 7.71 µM (inactive) | 41.2 µM (inactive) | 45.3 µM (inactive) | 39.1 µM (inactive) | 46.1 µM (inactive) | – | 30.1 µM (inactive) | 65.5 µM (inactive) | 41 µM | 17.4 µM (inactive) | 18.2 µM (inactive) | 26 µM (inactive) | 24 µM (inactive) | 37.3 µM (inactive) | 45.2 µM (inactive) | – | 0.132 µM (active) | – | 17.3 µM (inactive) | –
Cc1ccc(S(=O)(=O)N/N=C/c2oc(-c3cccc([N+](=O)[O-])c3)c(-c3cccc([N+](=O)[O-])c3)c2[N+](=O)[O-])cc1 | > 100 µM (inactive) | 66.5 µM (inactive) | 92.5 µM (inactive) | > 100 µM (inactive) | 60.7 µM (inactive) | 73.1 µM (inactive) | 21.2 µM (inactive) | > 100 µM (inactive) | 62.2 µM | – | 49.8 µM (inactive) | > 100 µM (inactive) | 16.3 µM (inactive) | 51.2 µM (inactive) | 31.9 µM (inactive) | 17.6 µM (inactive) | > 100 µM (inactive) | – | 25.4 µM (inactive) | > 100 µM (inactive)
C[C@]12CC[C@H]3[C@@H](CCC4=CC(=O)C=C[C@@]43O)[C@@H]1CCC2=O | 70.8 µM (inactive) | > 100 µM (inactive) | > 100 µM (inactive) | – | > 100 µM (inactive) | 82 µM (inactive) | – | 62.1 µM (inactive) | 56 µM | 78.3 µM (inactive) | > 100 µM (inactive) | > 100 µM (inactive) | > 100 µM (inactive) | > 100 µM (inactive) | 27.9 µM (inactive) | 74.3 µM (inactive) | – | – | – | > 100 µM (inactive)
